Measurements published in publication PMC5201116, “Bioactive Flavonoids and Catechols as Hif1 and Nrf2 Protein Stabilizers - Implications for Parkinson’s Disease” (Aging and Disease, 2016).

Assays:
[1] = system: Neh2-luc reporter (SH-SY5Y cell line); assay: Neh2-luc reporter assay; format: cell-based; details: Homo sapiens, SH-SY5Y
[2] = Iron binding constant, calcein displacement assay; format: physicochemical; details: calcein displacement
Source text: Calcein displacement assay in the presence of varied concentrations of flavonoids and catechols has been used. Calcein release from its complex with iron was monitored by fluorescence as described in [26].

[3] = system: VEGF mRNA in immature primary cortical neurons; assay: VEGF mRNA induction, real-time RT-PCR; format: cell-based; details: Fig. 4B
Procedure: For VEGF gene expression studies, total RNA was isolated from immature primary cortical neurons, pretreated overnight with the indicated concentration of a bioactive compound, using the NucleoSpin RNA II kit (Macherey-Nagel, Bethlehem, PA) according to manufacturer’s protocol. Real-time PCR was performed in triplicate as a duplex reaction using a VEGF (Mm01281449_m1) gene expression assay with a 6-carboxyfluorescein-labeled probe, and a β actin gene expression assay with a VIC-labeled probe (Applied Biosystems, Foster City, CA), so that gene amplification could be normalized to β actin. These experiments were performed using a 7500 Real-time PCR System (Applied Biosystems) using standard PCR protocol and amplification conditions.

[4] = system: HO-1 mRNA in brain; assay: Brain HO-1 mRNA levels after NDGA; format: in vivo, mouse; details: 6 hours after last dose, data not shown
Procedure: We used an acute paradigm of MPTP administration (10 mg MPTP/kg X 3, every two hours), known to cause about a 50% loss of striatal dopamine and its metabolites DOPAC and HVA and significant loss of tyrosine hydroxylase (TH) immunopositive neurons in the substantia nigra pars compacta (SNpc) on the 7th day. […] The doses that were used to determine the efficacy of NDGA against MPTP were determined by evaluation of brain HO-1 levels. Both 50 and 100 mg/kg administered twice a day induced a dose dependent increase in HO-1 mRNA levels at 6 hours after last dose of NDGA.

[5] = system: C57Bl6 mice, MPTP model of Parkinson's disease; assay: Stereological counts of Nissl- and TH-positive neurons in SNpc, MPTP model; format: in vivo, mouse; details: NDGA 100mg/kg/day, Fig. 7
Procedure: Acute MPTP-intoxication paradigm was used to test the neuroprotective effects of NDGA using male C57Bl6 mice. In this protocol, 10-week-old C57Bl6 mice (n = 8-10 per group) were divided into four different groups consisting of 1) a control group treated with saline alone; 2) a group treated with MPTP alone; 3) a group treated with NDGA alone and; 4) group treated with NDGA in combination with MPTP. NDGA was dissolved in 1:4 ethanol:neobee oil (a derivative of coconut oil). MPTP 10 mg/kg free base was administered intraperitoneally three times a day every two hours. Animals with NDGA in combination with MPTP were administered NDGA by oral gavage with 50 and 100mg/kg/day body weight of the drug in 100 microliter volume once a day for 4 days before MPTP and once a day for 3 days after MPTP. On the day of MPTP NDGA was administered to mice 2 hours before the initiation of MPTP. Animals belonging to MPTP and control groups received the vehicle (ethanol:neobee oil, 1:4) whereas the drug alone group received respective doses of NDGA at the same frequency. All animals were sacrificed on the 7th day after MPTP. […]

[6] = system: primary neuronal cultures treated with 5 mM HCA; assay: Glutathione depletion (HCA) model, MTT viability; format: cell-based, rat; details: glutathione depletion model, Fig. 5
Procedure: Primary neuronal cultures were prepared from the forebrains of Sprague-Dawley rat embryos (E17) and plated on 96 well plates at a 10^6 cells/ml density. After 24 hours, cells were rinsed with warm PBS and then placed in minimum Essential Medium (MEM; Life Technologies, Grand Island, NY) containing 5 mM HCA in the presence of a compound of interest at varied concentrations. Cells were incubated for 24 h or longer to see 90% cell death in HCA treated controls. Viability was assessed by the MTT (4,5-dimethylthiazol-2-yl)-2,5-diphenyltetrazolium bromide) assay.

EC50 ([1]; Neh2-luc): 2000 nM | Iron complex Diss. Const [2]: 2.5 ± 0.3 µM
Structure (SMILES): CC(Cc1ccc(O)c(O)c1)C(C)Cc1ccc(O)c(O)c1 (centres unmarked) [compound 28, 4,4'-(2,3-dimethylbutane-1,4-diyl)dibenzene-1,2-diol]
fold induction at 10 µM ([1]; at 10 µM, 3 h incubation, read-out: Neh2-luc fold activation): 15 ± 1.8 | VEGF induction potency relative to FG-4592 [3]: at least 2 times | increase in HO-1 mRNA levels ([4]; 50 mg/kg twice a day): 1.2 fold | increase in HO-1 mRNA levels ([4]; 100 mg/kg twice a day): 6 fold | MPTP-induced loss of total (Nissl-positive) and TH-immunopositive neurons in SNpc [5]: significant attenuation | concentration at which neuroprotection begins [6]: 2.5 µM
